Measured values as given in US20260022114A1, “N-(5-SUBSTITUTED-[(1,3,4-THIADIAZOLYL) OR (1,3-THIAZOLYL)](SUBSTITUTED)CARBOXAMIDE COMPOUNDS, PHARMACEUTICAL COMPOSITIONS, AND METHODS OF PREPARING THE AMIDE COMPOUNDS AND OF THEIR USE” (Repare Therapeutics Inc., priority 2022, published 2026).

Each compound was assayed against PolQ ATPase enzyme (1-894) (Homo sapiens (Human), UniProt O75417) (assay: Polθ ATPase enzymatic assay (0.5 nM enzyme concentration), ADP-Glo). Conditions: 0.5 nM PolQ ATPase enzyme (1-894); average IC50.
Format: biochemical
Protocol: PolQ ATPase enzyme (1-894) at 0.5 nM is incubated with a 10-point concentration response of inhibitors for 15 min at rt in the following buffer: 50 mM Tris Cl pH 7.5, 10% glycerol, 5 mM DTT, 10 mM MgCl2, 0.1 mg/ml BSA. Following pre-incubation with inhibitors, DNA (Fork C) at 20 nM and ATP at 100 μM are added to start the reaction. Enzymatic reaction proceeds at rt for 180 min. ATP consumption is measured using the ADP-Glo assay from Promega. Luminescence is read on the Envision and IC50 are determined using the variable slope 4-parameters equation.
Oligos are annealed by heating at 95° C. for 5 min in the following buffer (10 mM Tris-HCl PH7.5, 50 mM NaCl, 1 mM EDTA) and cooled to rt. […]

Sequence of PolQ ATPase enzyme (1-894) (O75417 1-894): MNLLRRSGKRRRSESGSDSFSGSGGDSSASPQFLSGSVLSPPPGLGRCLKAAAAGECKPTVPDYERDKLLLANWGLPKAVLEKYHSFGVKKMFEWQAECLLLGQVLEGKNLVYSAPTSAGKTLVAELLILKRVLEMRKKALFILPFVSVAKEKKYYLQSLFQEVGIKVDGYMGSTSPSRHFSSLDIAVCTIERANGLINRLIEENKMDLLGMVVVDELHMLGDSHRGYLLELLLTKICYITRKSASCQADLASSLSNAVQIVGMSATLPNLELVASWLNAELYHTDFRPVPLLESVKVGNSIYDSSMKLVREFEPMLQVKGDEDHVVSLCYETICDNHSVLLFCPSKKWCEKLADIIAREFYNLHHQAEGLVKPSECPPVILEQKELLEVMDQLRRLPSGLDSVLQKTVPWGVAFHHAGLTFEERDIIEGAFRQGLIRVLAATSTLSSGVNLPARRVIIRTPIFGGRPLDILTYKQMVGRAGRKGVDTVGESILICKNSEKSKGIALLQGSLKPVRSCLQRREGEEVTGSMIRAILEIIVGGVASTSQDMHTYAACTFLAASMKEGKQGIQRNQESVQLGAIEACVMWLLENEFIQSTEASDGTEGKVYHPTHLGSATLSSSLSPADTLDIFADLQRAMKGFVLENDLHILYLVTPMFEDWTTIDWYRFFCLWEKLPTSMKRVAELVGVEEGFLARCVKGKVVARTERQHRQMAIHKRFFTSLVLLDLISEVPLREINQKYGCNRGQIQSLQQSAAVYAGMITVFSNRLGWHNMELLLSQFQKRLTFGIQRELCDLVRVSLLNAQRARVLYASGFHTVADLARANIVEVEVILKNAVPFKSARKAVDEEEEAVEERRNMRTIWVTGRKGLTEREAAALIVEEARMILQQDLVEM

Row | SMILES | IC50
1 | COc1cnc(C(F)F)cc1-c1cc(-n2ccc(C)cc2=O)ncc1C(=O)Nc1nnc(CC(=O)N(C)C)s1 [Compound 603] | 40 nM
2 | C#C[C@H]1CC1c1nnc(NC(=O)c2cnc(CC#N)cc2-c2cc(C(F)F)ncc2OC)s1 (stereo partly drawn) [Compound 190] | 5.8 nM
3 | COc1cnc(C(F)F)cc1-c1cc(N2CCCCS2(=O)=O)ncc1C(=O)Nc1nnc(C#CC2CC2)s1 [Compound 521] | 15 nM
4 | COc1cnc(C(F)F)cc1-c1cc(-n2cccc(C)c2=O)ncc1C(=O)Nc1nnc([C@H]2C[C@@H]2C(F)(F)F)s1 [Compound 552] | 0.45 nM
5 | COc1cnc(C(F)F)cc1-c1cc(C#CCN2CCOCC2)ncc1C(=O)Nc1nnc([C@H]2C[C@@H]2c2cncs2)s1 (racemic) [Compound 640] | 0.54 nM
6 | COc1cnc(C(F)F)cc1-c1cc(C#CCN2CC[S+]([O-])CC2)ncc1C(=O)Nc1nnc(C#CC2CC2)s1 [Compound 596] | 0.45 nM
7 | COc1cnc(C(F)F)cc1-c1cc(C#CCC(C)(C)O)ncc1C(=O)Nc1nnc([C@@H]2C[C@H]2c2ccn(C)n2)s1 [Compound 630] | 8.5 nM
8 | COC(=O)C1CCN(c2cc(-c3cc(C(F)F)ncc3OC)c(C(=O)Nc3nnc(C#CC4CC4)s3)cn2)C(=O)C1 (stereo not drawn) [Compound 497] | 0.45 nM
9 | COc1cnc(C(F)F)cc1-c1cc(-n2ccc(C)cc2=O)ncc1C(=O)Nc1nnc(COc2cnn(C)c2)s1 [Compound 621] | 6.3 nM
10 | COc1cnc(C(F)F)cc1-c1cc(-n2ccc(N(C)C)cc2=O)ncc1C(=O)Nc1nnc(C#CC2CC2)s1 [Compound 537] | 0.44 nM
11 | COc1cnc(C(F)F)cc1-c1cc(C#CCC(C)(C)O)ncc1C(=O)Nc1nnc([C@H]2C[C@@H]2C)s1 (racemic) [Compound 620] | 3.2 nM
12 | COc1cnc(C(F)F)cc1-c1cc(-n2cccc(Cl)c2=O)ncc1C(=O)Nc1nnc([C@H]2C[C@@H]2C)s1 [Compound 608] | 0.79 nM
13 | C#C[C@@H]1CC1c1nnc(NC(=O)c2cnc(-n3ccc(C)cc3=O)cc2-c2cc(C(F)F)ncc2OC)s1 (mixture of isomers) [Compound 593] | 9.9 nM
14 | COc1cnc(C(F)F)cc1-c1cc(C#CCn2cccn2)ncc1C(=O)Nc1nnc(C#CC2CC2)s1 [Compound 598] | 15 nM
15 | COc1cnc(C(F)F)cc1-c1cc(C#CC(C)(C)N2CCN(C)CC2)ncc1C(=O)Nc1nnc(C#CC2CC2)s1 [Compound 549] | 1.5 nM
16 | COc1cnc(C(F)F)cc1-c1cc(C#CCN2CCOCC2=O)ncc1C(=O)Nc1nnc(C#CC2CC2)s1 [Compound 542] | 0.29 nM
17 | C#C[C@H]1CC1c1nnc(NC(=O)c2cnc(N3CCOC4(CC4)C3=O)cc2-c2cc(C(F)F)ncc2OC)s1 (single isomer, unassigned) [Compound 588] | 0.75 nM
18 | CNC(=O)Cn1cc(-c2cc(C(F)(F)F)ccc2OC)c(C(=O)Nc2nnc(C3C[C@H]3c3ccc(C#N)cc3)s2)cc1=O (stereo partly drawn) [Compound 92] | 0.25 nM
19 | COc1cnc(C(F)F)cc1-c1cc(-n2ccc(C)cc2=O)ncc1C(=O)Nc1nnc([C@H]2C[C@@H]2c2cnn(C)c2)s1 (racemic) [Compound 584] | 0.51 nM
20 | COc1cnc(C(F)F)cc1-c1cc(-n2ccc(N3CCN(C)CC3)cc2=O)ncc1C(=O)Nc1nnc(C#CC2CC2)s1 [Compound 535] | 0.73 nM

Row | SMILES | IC50
21 | C#C[C@H]1C[C@@H]1c1nnc(NC(=O)c2cnc(C#CCN3CCOCC3)cc2-c2cc(C(F)F)ncc2OC)s1 [Compound 573] | 1 nM
22 | COc1cnc(C(F)F)cc1-c1cc(-n2cccc(C)c2=O)ncc1C(=O)Nc1nnc(C#CC2CCOCC2)s1 [Compound 494] | < 0.25 nM
23 | COc1cnc(C(F)F)cc1-c1cc(C#CCn2ccnc2)ncc1C(=O)Nc1nnc(C#CC2CC2)s1 [Compound 601] | 2.7 nM
24 | COc1cnc(C(F)F)cc1-c1cc(-n2ccc(OC3CCN(C)C3)cc2=O)ncc1C(=O)Nc1ncc(C#CC2CC2)s1 (racemic) [Compound 615] | 1.1 nM
25 | C=C[C@H]1C[C@@H]1c1nnc(NC(=O)c2cnc(-n3ccc(C)cc3=O)cc2-c2cc(C(F)F)ncc2OC)s1 (racemic) [Compound 585] | 0.47 nM
26 | COc1cnc(C(F)F)cc1-c1cc(C#CCN2CCCC2=O)ncc1C(=O)Nc1nnc([C@H]2C[C@@H]2c2cscn2)s1 (racemic) [Compound 641] | < 0.25 nM
27 | COc1cnc(C(F)F)cc1-c1cc(-c2ccc(C)nc2OC)ncc1C(=O)Nc1nnc(C#CC2CC2)s1 [Compound 501] | 0.93 nM
28 | COc1cnc(C(F)F)cc1-c1nc(-c2nnc(C)o2)ccc1C(=O)Nc1ncc(C#CC2CC2)s1 [Compound 392] | > 100 nM
29 | COc1cnc(Cl)cc1-c1cnccc1C(=O)Nc1nnc(C2C[C@H]2c2ccc(OC(F)F)cc2)s1 (stereo partly drawn) [Compound 62] | 0.36 nM
30 | COc1cnc(C(F)F)cc1-c1cc(-n2ccc(C)cc2=O)ncc1C(=O)Nc1nnc(C2CC2)s1 [Compound 532] | 1.7 nM
31 | C#C[C@H]1C[C@@H]1c1nnc(NC(=O)c2cnc(-n3ccc(CO)cc3=O)cc2-c2cc(C(F)F)ncc2OC)s1 [Compound 571] | < 0.25 nM
32 | COc1cnc(C(F)F)cc1-c1cc(-c2ccc(=O)n(C)c2)ncc1C(=O)Nc1nnc(C#CC2CC2)s1 [Compound 524] | 2.3 nM
33 | C=C1CC(c2nnc(NC(=O)c3cnc(-n4ccc(C)cc4=O)cc3-c3cc(C(F)F)ncc3OC)s2)C1 [Compound 597] | 3.6 nM
34 | COc1cnc(C(F)F)cc1-c1cc(-n2ccc(C3CCN(C)CC3)cc2=O)ncc1C(=O)Nc1nnc(C#CC2CC2)s1 [Compound 536] | 0.96 nM
35 | COc1cnc(C(F)F)cc1-c1cc(CC2CCOCC2)ncc1C(=O)Nc1nnc(C#CC2CC2)s1 [Compound 267] | 6.4 nM
36 | C#C[C@H]1C[C@@H]1c1nnc(NC(=O)c2cnc(-n3ccc(OC4COC4)cc3=O)cc2-c2cc(C(F)F)ncc2OC)s1 [Compound 617] | < 0.25 nM
37 | COc1cnc(C(F)F)cc1-c1cc(C2CC(C)CCC2=O)ncc1C(=O)Nc1nnc(C#CC2CC2)s1 (racemic) [Compound 389] | < 0.25 nM
38 | COc1cnc(C(F)F)cc1-c1c(C(=O)Nc2nnc(C#CC3CC3)s2)ccc(-c2ccn(C)n2)c1F [Compound 385] | 0.87 nM
39 | COc1cnc(C(F)F)cc1-c1cc(-n2ccc(C)cc2=O)ncc1C(=O)Nc1nnc(C2CC2(F)Cl)s1 (racemic) [Compound 605] | 4 nM
40 | COc1cnc(C(F)F)cc1-c1cc(-n2ccc(B(O)O)cc2=O)ncc1C(=O)Nc1nnc(C#CC2CC2)s1 [Compound 509] | 1.7 nM

Row | SMILES | IC50
41 | C#C[C@H]1CC1c1nnc(NC(=O)c2cnc(-n3ncc(C)cc3=O)cc2-c2cc(C(F)F)ncc2OC)s1 (single isomer, unassigned) [Compound 632] | 0.35 nM
42 | COc1cnc(C(F)F)cc1-c1cc(C#CCCN2CCOCC2)ncc1C(=O)Nc1nnc(C#CC2CC2)s1 [Compound 541] | 0.55 nM
43 | C#C[C@H]1C[C@@H]1c1nnc(NC(=O)c2cnc(-n3cccc(F)c3=O)cc2-c2cc(C(F)F)ncc2OC)s1 [Compound 562, 2″-(difluoromethyl)-N-(5-((1S,2S)-2-ethynylcyclopropyl)-1,3,4-thiadiazol-2-yl)-3-fluoro-5″-methoxy-2-oxo-2H-[1,2′:4′,4″-terpyridine]-5′-carboxamide] | < 0.25 nM
44 | COCCC#Cc1cc(-c2cc(C(F)F)ncc2OC)c(C(=O)Nc2nnc([C@H]3C[C@@H]3C)s2)cn1 (racemic) [Compound 625] | 0.42 nM
45 | COc1cnc(C(F)(F)F)nc1-c1cc(CC#N)ccc1C(=O)Nc1nnc(C#CC2CC2)s1 [Compound 482] | 0.73 nM
46 | COc1cnc(C(F)F)cc1-c1cc(-n2ccc(C)cc2=O)ncc1C(=O)Nc1nnc(COC(C)(C)C)s1 [Compound 578] | 25 nM
47 | COc1cnc(C(F)F)cc1-c1cc(-n2ccc(N(C)C3COC3)cc2=O)ncc1C(=O)Nc1nnc(C#CC2CC2)s1 [Compound 614] | 0.4 nM
48 | C#C[C@H]1C[C@@H]1c1nnc(NC(=O)c2cnc(Oc3cc(Cl)ccn3)cc2-c2cc(C(F)F)ncc2OC)s1 [Compound 577] | < 0.25 nM
49 | COc1cnc(C(F)F)cc1-c1cc(Cn2ccccc2=O)ncc1C(=O)Nc1nnc(C#CC2CC2)s1 [Compound 507] | 1.5 nM
50 | COc1cnc(C(F)F)cc1-c1cc(C#CCN2CCCCC2)ncc1C(=O)Nc1nnc(C#CC2CC2)s1 [Compound 589] | 0.7 nM
51 | COc1cnc(C(F)F)cc1-c1cc(C#CCNCC(F)(F)F)ncc1C(=O)Nc1nnc(C#CC2CC2)s1 [Compound 558] | < 0.25 nM
52 | CCOC(=O)N1CCN(c2cc(-c3cc(C(F)F)ncc3OC)c(C(=O)Nc3nnc(C#CC4CC4)s3)cn2)C(=O)C12CC2 [Compound 564] | 0.38 nM
53 | COC(=O)N1CCN(c2cc(-c3cc(C(F)F)ncc3OC)c(C(=O)Nc3nnc(C#CC4CC4)s3)cn2)C(=O)C12CC2 [Compound 505] | < 0.25 nM
54 | COc1cnc(C(F)F)cc1-c1cc(C#CCC(C)(C)O)ncc1C(=O)Nc1nnc([C@H]2C[C@@H]2c2ccn(C)n2)s1 [Compound 631] | 0.93 nM
55 | COc1cnc(C(F)F)cc1-c1cc(N2CCC(C)CCC2=O)ncc1C(=O)Nc1nnc(C#CC2CC2)s1 (racemic) [Compound 485] | 0.7 nM
56 | COc1cnc(C(F)F)cc1-c1cc(-n2ccc(C)cc2=O)ncc1C(=O)Nc1nnc(C2C[C@@H]2C2CCCO2)s1 (mixture of isomers) [Compound 633] | 0.95 nM
57 | COc1cnc(C(F)F)cc1-c1cc(-n2cccc(C(C)=O)c2=O)ncc1C(=O)Nc1nnc(C#CC2CC2)s1 [Compound 491] | < 0.25 nM
58 | COc1cnc(C(F)F)cc1-c1cc(-c2ccn(C)c(=O)c2)ncc1C(=O)Nc1nnc(C#CC2CC2)s1 [Compound 519] | 12 nM
59 | C#C[C@H]1CC1c1nnc(NC(=O)c2cnc(-n3ccc(OC)cc3=O)cc2-c2cc(C(F)F)ncc2OC)s1 (single isomer, unassigned) [Compound 629] | 1 nM
60 | COc1cc(C)ncc1-c1cc(-c2cc(C(F)F)ncc2OC)c(C(=O)Nc2nnc(C#CC3CC3)s2)cn1 [Compound 489] | 0.4 nM
